Legend:
Italian ryegrass = assay: Test E Italian ryegrass; assay type: in vivo, Lolium multiflorum; details: Preemergence
tall mallow = assay: Test D tall mallow; assay type: in vivo, Malva sylvestris; details: Preemergence, 0 to 100 scale
In short: (§1)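 Greenhouse pots, seeds in sandy loam; compounds formulated in non-phytotoxic solvent with surfactant; preemergence treatments went on the soil surface within one day of planting. Injury rated visually 14 to 21 days after application on a 0 (none) to 100 (complete control) scale.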

common pursiane = assay: Test D common purslane; assay type: in vivo, Portulaca oleracea
In short: as §1

wild oat = assay: Test E wild oat; assay type: in vivo, Avena fatua; details: Preemergence, 0 to 100 scale where 0 is no effect and 100 is complete control
winter barley = assay: Test E winter barley; assay type: in vivo, Hordeum vulgare; details: Preemergence
blackgrass = assay: Test E blackgrass; assay type: in vivo, Alopecurus myosuroides; details: Preemergence
green foxtail [1] = assay: Test E green foxtail; assay type: in vivo, Setaria viridis; details: Preemergence
Green foxtail [2] = assay: Test D green foxtail; assay type: in vivo; details: Preemergence, 0 to 100 scale
In short: as §1

soybean = assay: Test B pre/postemergence soybean; assay type: in vivo, Glycine max
In short: (§2)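 Test chemicals in a non-phytotoxic solvent mixture with surfactant were sprayed preemergence onto planted seeds and postemergence onto plants 2 to 18 cm tall (1- to 4-leaf stage). After twelve to sixteen days in a greenhouse, injury was visually rated against untreated controls from 0 (no effect) to 10 (complete control).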

purple nutsedge = assay: Test B pre/postemergence purple nutsedge; assay type: in vivo, Cyperus rotundus
In short: as §2

common ragweed = assay: Test D common ragweed; assay type: in vivo, Ambrosia elatior; details: Preemergence, 0 to 100 scale
In short: as §1

duck salad = assay: Test B flood test duck salad; assay type: in vivo, Heteranthera limosa
In short: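 Plants were grown to the 2-leaf stage before treatment with test chemical, then held in a greenhouse for twelve to sixteen days. Injury was visually rated against untreated controls on a 0–10 scale, where 0 is no effect and 10 is complete control.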

surinam grass = assay: Test D surinam grass; assay type: in vivo, Brachiaria decumbens; details: Preemergence, 0 to 100 scale
In short: as §1

Alexandergrass = assay: Test D Alexandergrass; assay type: in vivo, Brachiaria plantaginea; details: Preemergence, 0 to 100 scale
In short: as §1

winter wheat [3] = assay: Test E winter wheat; assay type: in vivo, Triticum aestivum; details: Preemergence
wheat = assay: Test B pre/postemergence wheat; assay type: in vivo, Triticum aestivum; details: for Plant response rating, Wheat: Rate 250 g/ha
In short: as §2

winter wheat [4] = assay: Test E winter wheat; assay type: in vivo, Triticum aestivum; details: Postemergence
In short: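 Postemergence: spray at 1–4 leaf stage, soil 60:40 sandy loam:potting mix; solvent + surfactant formulation; greenhouse 21–28 d; visual injury vs untreated controls.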

[5] = Rate 500 g/ha, 0 to 100 scale where 0 is no effect and 100 is complete control
[6] = Rate 1000 g/ha, 0 to 100 scale where 0 is no effect and 100 is complete control
[7] = Rate 125 g/ha, 0 no injury, 100 complete control
[8] = Postemergence, Rate 62 g/ha, scale 0 to 10, 0 is no effect, 10 is complete control
[9] = Postemergence, Rate 125 g/ha, scale of 0 to 10 where 0 is no effect and 10 is complete control
[10] = Preemergence, Rate 62 g/ha, scale 0 to 10 (0 no effect, 10 complete control)
[11] = Preemergence, Rate 125 g/ha, scale 0 to 10 (0 no effect, 10 complete control)
[12] = Preemergence, Rate 250 g/ha, scale of 0 to 10 where 0 is no effect and 10 is complete control
[13] = Preemergence, Rate 500 g/ha, scale 0 (no effect) to 10 (complete control)
[14] = Rate 500 g/ha, Postemergence, scale 0 to 10, 0 no effect, 10 complete control

CC(C)N(C(=O)n1oc(=O)n(Cc2ccccc2)c1=O)c1ccccc1 [Compound 94]
Plant response rating, I. Ryegrass (Italian ryegrass; Rate 250 g/ha, 0 to 100 scale): 40
Plant response rating, I. Ryegrass (Italian ryegrass; [5]): 60
Plant response rating, I. Ryegrass (Italian ryegrass; [6]): 60
Tall Mallow plant response rating (tall mallow; [7]): 0
Plant response rating, Tall Mallow (tall mallow; Rate 500 g/ha): 20
Plant response rating, C. purslane (common pursiane; Rate 125 g/ha, Preemergence; 0 to 100 scale, 0 no injury, 100 complete control): 0
Plant response rating, C. purslane (common pursiane; Rate 500 g/ha, Preemergence; 0 to 100 scale): 10
Plant response rating, C. purslane (common pursiane; Rate 500 g/ha; Preemergence; 0 to 100 scale): 0
Plant response rating, Wild oat (wild oat; Rate 500 g/ha): 40
Plant response rating, Wild oat (wild oat; Rate 1000 g/ha): 50
Plant response rating, Barley (winter) (winter barley; Rate 250 g/ha, 0 to 100 scale): 40
Plant response rating, Barley (winter) (winter barley; [5]): 50
Plant response rating, Barley (winter) (winter barley; [6]): 50
Plant response rating, Blackgrass (blackgrass; Rate 250 g/ha, 0 to 100 scale): 60
Plant response rating, Blackgrass (blackgrass; [5]): 60
Plant response rating, Blackgrass (blackgrass; [6]): 60
Plant response rating, Green foxtail (green foxtail [1]; Rate 250 g/ha, 0 to 100 scale): 80
Plant response rating, Green foxtail (green foxtail [1]; [5]): 90
Plant response rating, Green foxtail (green foxtail [1]; [6]): 100
Green foxtail plant response rating (Green foxtail [2]; [7]): 90
Plant response rating, Green foxtail (Green foxtail [2]; [7]): 90
Plant response rating, Green foxtail (Green foxtail [2]; Rate 500 g/ha): 100
Soybean plant response rating (soybean; [8]): 5
Soybean plant response rating (soybean; [9]): 5
Soybean plant response rating (soybean; [10]): 0
Plant response rating, Soybean (soybean; [11]): 0
Plant response rating, Soybean (soybean; [12]): 0
Soybean plant response rating (soybean; [13]): 0
Plant response rating, Soybean (soybean; Rate 250 g/ha, Postemergence, scale 0 to 10, 0 is no effect, 10 is complete control): 5
Soybean plant response rating (soybean; [14]): 5
Nutsedge plant response rating (purple nutsedge; [8]): 0
Nutsedge plant response rating (purple nutsedge; [9]): 0
Nutsedge plant response rating (purple nutsedge; Postemergence, Rate 250 g/ha, scale 0 to 10, 0 no effect, 10 complete control): 0
Nutsedge plant response rating (purple nutsedge; [10]): 0
Plant response rating, Nutsedge (purple nutsedge; [11]): 0
Plant response rating, Nutsedge (purple nutsedge; [12]): 0
Nutsedge plant response rating (purple nutsedge; [13]): 0
Nutsedge plant response rating (purple nutsedge; [14]): 0
Plant response rating, C. ragweed (common ragweed; [7]): 0
Plant response rating, C. ragweed (common ragweed; Rate 500 g/ha): 10
Ducksalad plant response rating (duck salad; Postemergence (flood test species), Rate 125 g/ha, scale of 0 to 10 where 0 is no effect and 10 is complete control): 0
Ducksalad plant response rating (duck salad; [8]): 0
Ducksalad plant response rating (duck salad; Rate 250 g/ha, headed Pre-emergence (flood test species), scale 0 to 10 (0 no effect, 10 complete control)): 0
Plant response rating, Ducksalad (duck salad; Rate 500 g/ha, headed Pre-emergence (flood test species), scale 0 to 10 (0 no effect, 10 complete control)): 0
Ducksalad plant response rating (duck salad; Rate 500 g/ha, listed under Postemergence (flood test species), scale 0 to 10, 0 no effect, 10 complete control): 2
Ducksalad plant response rating (duck salad; Rate 1000 g/ha, Pre-emergence (as headed), scale 0 to 10): 0
Ducksalad plant response rating (duck salad; Rate 2000 g/ha, Pre-emergence (as headed), scale 0 to 10): 0
Ducksalad plant response rating (duck salad; flood test, listed under Postemergence, Rate 250 g/ha, scale 0 to 10, 0 no effect, 10 complete control): 0
Surinam grass plant response rating (surinam grass; [7]): 80
Plant response rating Surinam grass (surinam grass; Rate 500 g/ha): 90
Plant response rating, Alexandergrass (Alexandergrass; [7]): 50
Plant response rating, Alexandergrass (Alexandergrass; Rate 500 g/ha): 80
Plant response rating, Wheat (winter) (winter wheat [3]; Rate 250 g/ha, 0 to 100 scale): 30
Plant response rating, Wheat (winter) (winter wheat [3]; [5]): 30
Plant response rating, Wheat (winter) (winter wheat [3]; [6]): 40
Wheat plant response rating (wheat; [8]): 0
Wheat plant response rating (wheat; [9]): 0
Wheat plant response rating (wheat; [10]): 0
Wheat plant response rating (0 to 10 scale) (wheat; Preemergence, Rate 125 g/ha, 0 is no effect, 10 is complete control): 0
Plant response rating, Wheat (wheat; Preemergence, scale of 0 to 10 where 0 is no effect and 10 is complete control): 0
Wheat plant response rating (wheat; [13]): 0
Plant response rating, Wheat (wheat; Postemergence, scale 0 to 10, 0 is no effect, 10 is complete control): 0
Wheat plant response rating (wheat; [14]): 0
Plant response rating, Wheat (winter) (winter wheat [4]; Rate 250 g/ha, 0 to 100 scale (0 no effect, 100 complete control)): 0
Plant response rating, Wheat (winter) (winter wheat [4]; Rate 1000 g/ha, 0 to 100 scale, 0 is no effect and 100 is complete control): 0
Plant response rating, Wheat (winter) (winter wheat [4]; Rate 500 g/ha, 0 to 100 scale, 0 no effect, 100 complete control): 0

— patent US6737383B1, “Herbicidal oxadiazolidines” (priority 1999, dated 2004)
